Results as given in patent US9890155B2, “Aza-oxo-indoles for the treatment and prophylaxis of respiratory syncytial virus infection” (Hoffmann-La Roche Inc., priority 2013, dated 2018).
pEC50: −log10 of the molar value.

Test system: RSV Long strain
Test: Viral Cytopathic Effect (CPE) Assay
Type: cell-based
Details: human respiratory syncytial virus, 144 h, cell viability after 6 days (Cell Counting kit-8)
Protocol: EC50: the concentration of a compound where 50% of its maximal protection effect against viral induced CPE is observed
LongStrain: an A subtype RSV strain obtained from ATCC with catalog number VR-26
To measure anti-RSV activity of compounds, 96-well plates are seeded with 6×10^3 cells per well in Dulbecco's modified Eagle's medium (DMEM) containing 10% fetal bovine serum (FBS). Cells are infected the next day with sufficient RSV Long strain (ATCC) to produce an approximately 80-90% cytopathic effect after 6 days, in the presence of serial half-log diluted compound in a total volume of 200 μL per well. The viability of cells is assessed after 6 days using Cell Counting kit-8 (Dojindo Molecular Technologies). The absorbance at 450 nm and referenced at 630 nm is measured to determine 50% effective concentration (EC50).
In the case of N#Cc1ccc(-n2c(CN3C(=O)C4(CC4)c4ccncc43)nc3cc(Cl)ccc32)cn1 [Example 1, 5-{5-Chloro-2-[(2′-oxospiro[cyclopropane-1,3′-pyrrolo[2,3-c]pyridin]-1′(2′H)-yl)methyl]-1H-benzimidazol-1-yl}pyridine-2-carbonitrile], the pEC50 was 9.15. For CS(=O)(=O)c1cc(-n2c(CN3C(=O)C4(CC4)c4ccncc43)nc3cc(Cl)ccc32)ccn1 [Example 2-1, 1′-({5-Chloro-1-[2-(methylsulfonyl)pyridin-4-yl]-1H-benzimidazol-2-yl}methyl)spiro[cyclopropane-1,3′-pyrrolo[2,3-c]pyridin]-2′(1′H)-one], the pEC50 was 7.19. With CCS(=O)(=O)c1ccnc(-n2c(CN3C(=O)C4(CC4)c4ccncc43)nc3cc(Cl)ccc32)c1 [Example 2-2, 1′-({5-Chloro-1-[4-(ethylsulfonyl)pyridin-2-yl]-1H-benzimidazol-2-yl}methyl)spiro[cyclopropane-1,3′-pyrrolo[2,3-c]pyridin]-2′(1′H)-one] the pEC50 was 7.68. Work on CCOC(=O)Cc1ccc(-n2c(CN3C(=O)C4(CC4)c4ccncc43)nc3cc(Cl)ccc32)cc1 [Example 3, Ethyl(4-{5-chloro-2-[(2′-oxospiro[cyclopropane-1,3′-pyrrolo[2,3-c]pyridin]-1′(2′H)-yl)methyl]-1H-benzimidazol-1-yl}phenyl)acetate] yielded a pEC50 of 7.85. O=C1N(Cc2nc3cc(Cl)ccc3n2-c2ccccc2)c2cnccc2C12CC2 [Example 4-1, 1′-[(5-Chloro-1-phenyl-1H-benzimidazol-2-yl)methyl]spiro[cyclopropane-1,3′-pyrrolo[2,3-c]pyridin]-2′(1′H)-one] showed a pEC50 of 7.77. Work on CCOC(=O)c1ccc(-n2c(CN3C(=O)C4(CC4)c4ccncc43)nc3cc(Cl)ccc32)cc1 [Example 4-2, Ethyl 4-{5-chloro-2-[(2′-oxospiro[cyclopropane-1,3′-pyrrolo[2,3-c]pyridin]-1′(2′H)-yl)methyl]-1H-benzimidazol-1-yl}benzoate] yielded a pEC50 of 8.22. For CS(=O)(=O)c1ccc(-n2c(CN3C(=O)C4(CC4)c4ccncc43)nc3cc(Cl)ccc32)cn1 [Example 4-3, 1′-({5-Chloro-1-[6-(methylsulfonyl)pyridin-3-yl]-1H-benzimidazol-2-yl}methyl)spiro[cyclopropane-1,3′-pyrrolo[2,3-c]pyridin]-2′(1′H)-one], the pEC50 was 8.40. For CS(=O)(=O)c1cccc(-n2c(CN3C(=O)C4(CC4)c4ccncc43)nc3cc(Cl)ccc32)c1 [Example 4-4, 1′-({5-chloro-1-[3-(methylsulfonyl)phenyl]-1H-benzimidazol-2-yl}methyl)spiro[cyclopropane-1,3′-pyrrolo[2,3-c]pyridin]-2′(1′H)-one], the pEC50 was 8.10. CS(=O)(=O)c1ccc(-n2c(CN3C(=O)C4(CC4)c4ccncc43)nc3cc(Cl)ccc32)cc1 [Example 4-5, 1′-({5-Chloro-1-[4-(methylsulfonyl)phenyl]-1H-benzimidazol-2-yl}methyl)spiro[cyclopropane-1,3′-pyrrolo[2,3-c]pyridin]-2′(1′H)-one] showed a pEC50 of 8.30. In the case of COC(=O)c1cccc(-n2c(CN3C(=O)C4(CC4)c4ccncc43)nc3cc(Cl)ccc32)c1 [Example 4-6, Methyl 3-{5-chloro-2-[(2′-oxospiro[cyclopropane-1,3′-pyrrolo[2,3-c]pyridin]-1′(2′H)-yl)methyl]-1H-benzimidazol-1-yl}benzoate], the pEC50 was 7.80. In the case of N#Cc1cccc(-n2c(CN3C(=O)C4(CC4)c4ccncc43)nc3cc(Cl)ccc32)c1 [Example 4-7, 3-{5-Chloro-2-[(2′-oxospiro[cyclopropane-1,3′-pyrrolo[2,3-c]pyridin]-1′(2′H)-yl)methyl]-1H-benzimidazol-1-yl}benzonitrile], the pEC50 was 8.15. Compound CC(=O)c1cccc(-n2c(CN3C(=O)C4(CC4)c4ccncc43)nc3cc(Cl)ccc32)c1 [Example 4-8, 1′-{[1-(3-Acetylphenyl)-5-chloro-1H-benzimidazol-2-yl]methyl}spiro[cyclopropane-1,3′-pyrrolo[2,3-c]pyridin]-2′(1′H)-one] has a pEC50 of 7.72. COc1ccc(-n2c(CN3C(=O)C4(CC4)c4ccncc43)nc3cc(Cl)ccc32)cn1 [Example 4-9, 1′-{[5-Chloro-1-(6-methoxypyridin-3-yl)-1H-benzimidazol-2-yl]methyl}spiro[cyclopropane-1,3′-pyrrolo[2,3-c]pyridin]-2′(1′H)-one] gave a pEC50 of 7.96. In the case of CS(=O)(=O)c1cncc(-n2c(CN3C(=O)C4(CC4)c4ccncc43)nc3cc(Cl)ccc32)c1 [Example 5-1, 1′-({5-Chloro-1-[5-(methylsulfonyl)pyridin-3-yl]-1H-benzimidazol-2-yl}methyl)spiro[cyclopropane-1,3′-pyrrolo[2,3-c]pyridin]-2′(1H)-one], the pEC50 was 8.30. CS(=O)(=O)c1cccc(-n2c(CN3C(=O)C4(CC4)c4ccncc43)nc3cc(Cl)ccc32)n1 [Example 5-2, 1′-({5-Chloro-1-[6-(methylsulfonyl)pyridin-2-yl]-1H-benzimidazol-2-yl}methyl)spiro[cyclopropane-1,3′-pyrrolo[2,3-c]pyridin]-2′(1′H)-one] showed a pEC50 of 8.30. For Cc1cc(-n2c(CN3C(=O)C4(CC4)c4ccncc43)nc3cc(Cl)ccc32)cc(S(C)(=O)=O)c1 [Example 5-3, 1′-({5-Chloro-1-[3-methyl-5-(methylsulfonyl)phenyl]-1H-benzimidazol-2-yl}methyl)spiro[cyclopropane-1,3′-pyrrolo[2,3-c]pyridin]-2′(1′H)-one], the pEC50 was 7.72. O=C(O)c1ccc(-n2c(CN3C(=O)C4(CC4)c4ccncc43)nc3cc(Cl)ccc32)cc1 [Example 6-1, 4-{5-Chloro-2-[(2′-oxospiro[cyclopropane-1,3′-pyrrolo[2,3-c]pyridin]-1′(2′H)-yl)methyl]-1H-benzimidazol-1-yl}benzoic acid] gave a pEC50 of 8.22. With O=C(O)c1cccc(-n2c(CN3C(=O)C4(CC4)c4ccncc43)nc3cc(Cl)ccc32)c1 [Example 6-2, 3-{5-Chloro-2-[(2′-oxospiro[cyclopropane-1,3′-pyrrolo[2,3-c]pyridin]-1′(2′H)-yl)methyl]-1H-benzimidazol-1-yl}benzoic acid] the pEC50 was 6.29. O=C(O)c1ccc(-n2c(CN3C(=O)C4(CC4)c4ccc(F)cc43)nc3cc(Cl)ccc32)cc1 [Example 6-3, 4-{5-Chloro-2-[(6′-fluoro-2′-oxospiro[cyclopropane-1,3′-indol]-1′(2′H)-yl)methyl]-1H-benzimidazol-1-yl}benzoic acid] showed a pEC50 of 7.30. Compound NC(=O)c1ccc(-n2c(CN3C(=O)C4(CC4)c4ccncc43)nc3cc(Cl)ccc32)cc1 [Example 7, 4-{5-Chloro-2-[(2′-oxospiro[cyclopropane-1,3′-pyrrolo[2,3-c]pyridin]-1′(2′H)-yl)methyl]-1H-benzimidazol-1-yl}benzamide] has a pEC50 of 7.89. With O=C1N(Cc2nc3cc(Cl)ccc3n2-c2ccc(O)nc2)c2cnccc2C12CC2 [Example 8, 1′-{[5-Chloro-1-(6-hydroxypyridin-3-yl)-1H-benzimidazol-2-yl]methyl}spiro[cyclopropane-1,3′-pyrrolo[2,3-c]pyridin]-2′(1′H)-one] the pEC50 was 7.74. For CS(=O)(=O)c1ccc(-c2c(CN3C(=O)C4(CC4)c4ccncc43)[nH]c3cc(Cl)ccc23)cc1 [Example 9-1, 1′-({6-Chloro-3-[4-(methylsulfonyl)phenyl]-1H-indol-2-yl}methyl)spiro[cyclopropane-1,3′-pyrrolo[2,3-c]pyridin]-2′(1′H)-one], the pEC50 was 7.60. Compound CS(=O)(=O)c1cccc(-c2c(CN3C(=O)C4(CC4)c4ccncc43)[nH]c3cc(Cl)ccc23)c1 [Example 9-2, 1′-({6-Chloro-3-[3-(methylsulfonyl)phenyl]-1H-indol-2-yl}methyl)spiro[cyclopropane-1,3′-pyrrolo[2,3-c]pyridin]-2′(1′H)-one] has a pEC50 of 7.54.

Test system: RSV infection
Test: not given
Details: intramuscularly 15 mg/kg once a month for the RSV season, selected infants; cited from earlier work
For “palivizumab: a humanized monoclonal antibody against RSV fusion (F) protein approved for prophylaxis in high-risk infants”, the “reduction of hospitalization rate caused by RSV infection” value is given as 45-55%.
